{"source": "patent US20070166415A1", "about": "“Safe medicine for treating and preventing cancer and method of use” (priority 2006, published 2007)", "key": {"[1]": {"tested_on": "salmonella typhimurium TA97", "experiment": "Salmonella mutagenicity test, TA97", "assay_type": "cell-based", "procedure": "(§1) Methods for detecting carcinogens and mutagens with the salmonellia mutagenicity test are highly efficient in detecting carcinogens and mutagens. Major carcinogens tested have been detected as mutagens. Salmonella mutagenicity assay is very sensitive and simply test for detecting mutagens and carcinogens.\n(§2) Mutagenicity assays were carried out at least in triplicate."}, "[2]": {"tested_on": "salmonella typhimurium TA98", "experiment": "Salmonella mutagenicity test, TA98", "assay_type": "cell-based", "procedure": "as §1, §2"}, "[3]": {"tested_on": "salmonella typhimurium TA100", "experiment": "Salmonella mutagenicity test, TA100", "assay_type": "cell-based", "procedure": "as §1, §2"}, "[4]": {"details": "dog, in vivo", "text": "Twenty normal adult dogs which weight approximately 10 kg[…] used in experiments.\nMost deaths were caused by cardiac dysfunction."}, "[5]": {"experiment": "Metabolism (organ and blood radioactivity) of [^3H]-HHT in P388 mice", "assay_type": "in vivo", "procedure": "Animals: Adult DBA/2J male mice, 6 to 8 weeks old. All animals weighed approximately 25 g when used in experiments. Each member of which received identical dosed (i.p.) of HHT. Tumor: P388 leukemic cells induced in mice by inoculation with L1210 or P388 leukemic cells (1.0×10^5). After P388 induced in mice 5 days, 1 mg/kg of [^3H]-HHT (100 μC/mg) was injected to mice. […] Mice were killed at 1, 3, 6 and 24 hours after injection of [^3H]-HHT. The key data of HHT in metabolism process are determined counts per minute (CPM) of [^3H]-HHT in organs. CPM is determined by liquid scintillation counting (LSC). The methods of LSC combined with radioactive of [^3H]-HHT can be determined using a tracer of HHT in organs. After killed animals, organs and blood were obtained from P388 mice. […] Other processes are similar to the standard method."}}, "data": [{"smiles": "COC(=O)C[C@](O)(CCCC(C)(C)O)C(=O)O[C@@H]1C(OC)=C[C@]23CCCN2CCc2cc4c(cc2[C@H]13)OCO4", "note": "[HHT, Homoharringtonine]", "values": [{"measurement": "Number of His^+revertants/plate", "setting": "[1]; TA97 +S, 0.1 μg/plate", "result": "145 ± 14", "unit": "revertants/plate"}, {"measurement": "Number of His^+revertants/plate", "setting": "[1]; TA97 +S, 1 μg/plate", "result": "150 ± 14", "unit": "revertants/plate"}, {"measurement": "Number of His^+revertants/plate", "setting": "[1]; TA97 +S, 10 μg/plate", "result": "165 ± 16", "unit": "revertants/plate"}, {"measurement": "Number of His^+revertants/plate", "setting": "[1]; TA97 +S, 100 μg/plate", "result": "160 ± 17", "unit": "revertants/plate"}, {"measurement": "Number of His^+revertants/plate", "setting": "[1]; TA97 −S, 0.1 μg/plate", "result": "120 ± 10", "unit": "revertants/plate"}, {"measurement": "Number of His^+revertants/plate", "setting": "[1]; TA97 −S, 1 μg/plate", "result": "130 ± 11", "unit": "revertants/plate"}, {"measurement": "Number of His^+revertants/plate", "setting": "[1]; TA97 −S, 10 μg/plate", "result": "160 ± 16", "unit": "revertants/plate"}, {"measurement": "Number of His^+revertants/plate", "setting": "[1]; TA97 −S, 100 μg/plate", "result": "150 ± 16", "unit": "revertants/plate"}, {"measurement": "Number of His^+revertants/plate", "setting": "[2]; TA98 +S, 0.1 μg/plate", "result": "34 ± 4", "unit": "revertants/plate"}, {"measurement": "Number of His^+revertants/plate", "setting": "[2]; TA98 +S, 1 μg/plate", "result": "32 ± 4", "unit": "revertants/plate"}, {"measurement": "Number of His^+revertants/plate", "setting": "[2]; TA98 +S, 10 μg/plate", "result": "36 ± 3", "unit": "revertants/plate"}, {"measurement": "Number of His^+revertants/plate", "setting": "[2]; TA98 +S, 100 μg/plate", "result": "34 ± 4", "unit": "revertants/plate"}, {"measurement": "Number of His^+revertants/plate", "setting": "[2]; TA98 −S, 0.1 μg/plate", "result": "29 ± 3", "unit": "revertants/plate"}, {"measurement": "Number of His^+revertants/plate", "setting": "[2]; TA98 −S, 1 μg/plate", "result": "30 ± 3", "unit": "revertants/plate"}, {"measurement": "Number of His^+revertants/plate", "setting": "[2]; TA98 −S, 10 μg/plate", "result": "38 ± 4", "unit": "revertants/plate"}, {"measurement": "Number of His^+revertants/plate", "setting": "[2]; TA98 −S, 100 μg/plate", "result": "32 ± 4", "unit": "revertants/plate"}, {"measurement": "Number of His^+revertants/plate", "setting": "[3]; TA100 +S, 0.1 μg/plate", "result": 158, "unit": "revertants/plate"}, {"measurement": "Number of His^+revertants/plate", "setting": "[3]; TA100 +S, 1 μg/plate", "result": 152, "unit": "revertants/plate"}, {"measurement": "Number of His^+revertants/plate", "setting": "[3]; TA100 +S, 10 μg/plate", "result": 165, "unit": "revertants/plate"}, {"measurement": "Number of His^+revertants/plate", "setting": "[3]; TA100 +S, 100 μg/plate", "result": 160, "unit": "revertants/plate"}, {"measurement": "Number of His^+revertants/plate", "setting": "[3]; TA100 −S, 0.1 μg/plate", "result": "148 ± 12", "unit": "revertants/plate"}, {"measurement": "Number of His^+revertants/plate", "setting": "[3]; TA100 −S, 1 μg/plate", "result": "140 ± 13", "unit": "revertants/plate"}, {"measurement": "Number of His^+revertants/plate", "setting": "[3]; TA100 −S, 10 μg/plate", "result": "162 ± 17", "unit": "revertants/plate"}, {"measurement": "Number of His^+revertants/plate", "setting": "[3]; TA100 −S, 100 μg/plate", "result": "158 ± 15", "unit": "revertants/plate"}, {"measurement": "reversibility of toxicities observed", "setting": "[4]", "result": "completely reversible upon discontinuation of treatment"}, {"measurement": "CPM of [^3H]-HHT, Bone", "setting": "[5]; 1 hour after 1 mg/kg i.p.", "result": 500, "unit": "CMP/mg organ"}, {"measurement": "CPM of [^3H]-HHT, Brain", "setting": "[5]; 1 hour after 1 mg/kg i.p.", "result": 499, "unit": "CMP/mg organ"}, {"measurement": "CPM of [^3H]-HHT, Contents of intestine", "setting": "[5]; 1 hour after 1 mg/kg i.p.", "result": 3323, "unit": "CMP/mg organ"}, {"measurement": "CPM of [^3H]-HHT, Contents of stomach", "setting": "[5]; 1 hour after 1 mg/kg i.p.", "result": 6821, "unit": "CMP/mg organ"}, {"measurement": "CPM of [^3H]-HHT, Heart", "setting": "[5]; 1 hour after 1 mg/kg i.p.", "result": 1403, "unit": "CMP/mg organ"}, {"measurement": "CPM of [^3H]-HHT, Intestine", "setting": "[5]; 1 hour after 1 mg/kg i.p.", "result": 1638, "unit": "CMP/mg organ"}, {"measurement": "CPM of [^3H]-HHT, Kidney", "setting": "[5]; 1 hour after 1 mg/kg i.p.", "result": 6501, "unit": "CMP/mg organ"}, {"measurement": "CPM of [^3H]-HHT, Liver", "setting": "[5]; 1 hour after 1 mg/kg i.p.", "result": 4145, "unit": "CMP/mg organ"}, {"measurement": "CPM of [^3H]-HHT, Lung", "setting": "[5]; 1 hour after 1 mg/kg i.p.", "result": 2100, "unit": "CMP/mg organ"}, {"measurement": "CPM of [^3H]-HHT, Spleen", "setting": "[5]; 1 hour after 1 mg/kg i.p.", "result": 2828, "unit": "CMP/mg organ"}, {"measurement": "CPM of [^3H]-HHT, Stomach", "setting": "[5]; 1 hour after 1 mg/kg i.p.", "result": 1626, "unit": "CMP/mg organ"}, {"measurement": "CPM of [^3H]-HHT, Bone", "setting": "[5]; 3 hours after 1 mg/kg i.p.", "result": 560, "unit": "CMP/mg organ"}, {"measurement": "CPM of [^3H]-HHT, Brain", "setting": "[5]; 3 hours after 1 mg/kg i.p.", "result": 646, "unit": "CMP/mg organ"}, {"measurement": "CPM of [^3H]-HHT, Contents of intestine", "setting": "[5]; 3 hours after 1 mg/kg i.p.", "result": 7215, "unit": "CMP/mg organ"}, {"measurement": "CPM of [^3H]-HHT, Contents of stomach", "setting": "[5]; 3 hours after 1 mg/kg i.p.", "result": 84375, "unit": "CMP/mg organ"}, {"measurement": "CPM of [^3H]-HHT, Heart", "setting": "[5]; 3 hours after 1 mg/kg i.p.", "result": 1800, "unit": "CMP/mg organ"}, {"measurement": "CPM of [^3H]-HHT, Intestine", "setting": "[5]; 3 hours after 1 mg/kg i.p.", "result": 3288, "unit": "CMP/mg organ"}, {"measurement": "CPM of [^3H]-HHT, Kidney", "setting": "[5]; 3 hours after 1 mg/kg i.p.", "result": 3121, "unit": "CMP/mg organ"}, {"measurement": "CPM of [^3H]-HHT, Liver", "setting": "[5]; 3 hours after 1 mg/kg i.p.", "result": 6718, "unit": "CMP/mg organ"}, {"measurement": "CPM of [^3H]-HHT, Lung", "setting": "[5]; 3 hours after 1 mg/kg i.p.", "result": 2427, "unit": "CMP/mg organ"}, {"measurement": "CPM of [^3H]-HHT, Spleen", "setting": "[5]; 3 hours after 1 mg/kg i.p.", "result": 2426, "unit": "CMP/mg organ"}, {"measurement": "CPM of [^3H]-HHT, Stomach", "setting": "[5]; 3 hours after 1 mg/kg i.p.", "result": 2321, "unit": "CMP/mg organ"}, {"measurement": "CPM of [^3H]-HHT, Bone", "setting": "[5]; 6 hours after 1 mg/kg i.p.", "result": 505, "unit": "CMP/mg organ"}, {"measurement": "CPM of [^3H]-HHT, Brain", "setting": "[5]; 6 hours after 1 mg/kg i.p.", "result": 793, "unit": "CMP/mg organ"}, {"measurement": "CPM of [^3H]-HHT, Contents of intestine", "setting": "[5]; 6 hours after 1 mg/kg i.p.", "result": 6250, "unit": "CMP/mg organ"}, {"measurement": "CPM of [^3H]-HHT, Contents of stomach", "setting": "[5]; 6 hours after 1 mg/kg i.p.", "result": 100719, "unit": "CMP/mg organ"}, {"measurement": "CPM of [^3H]-HHT, Heart", "setting": "[5]; 6 hours after 1 mg/kg i.p.", "result": 1193, "unit": "CMP/mg organ"}, {"measurement": "CPM of [^3H]-HHT, Intestine", "setting": "[5]; 6 hours after 1 mg/kg i.p.", "result": 2475, "unit": "CMP/mg organ"}, {"measurement": "CPM of [^3H]-HHT, Kidney", "setting": "[5]; 6 hours after 1 mg/kg i.p.", "result": 3501, "unit": "CMP/mg organ"}, {"measurement": "CPM of [^3H]-HHT, Liver", "setting": "[5]; 6 hours after 1 mg/kg i.p.", "result": 4109, "unit": "CMP/mg organ"}, {"measurement": "CPM of [^3H]-HHT, Lung", "setting": "[5]; 6 hours after 1 mg/kg i.p.", "result": 1788, "unit": "CMP/mg organ"}, {"measurement": "CPM of [^3H]-HHT, Spleen", "setting": "[5]; 6 hours after 1 mg/kg i.p.", "result": 2198, "unit": "CMP/mg organ"}, {"measurement": "CPM of [^3H]-HHT, Stomach", "setting": "[5]; 6 hours after 1 mg/kg i.p.", "result": 3703, "unit": "CMP/mg organ"}]}]}
